# Source: patent publication US11767320B2, “Bicyclic dione compounds as inhibitors of KRAS” (INCYTE CORPORATION, priority 2020, dated 2023)
# Legend:
# [1] = system: MIA PaCa-2 (KRAS G12C) cells; assay: Cellular pERK HTRF assay; assay type: cell-based; conditions: Homo sapiens; MIA PaCa-2 cells, 4 hours, phospho-ERK 1/2 HTRF; read-out: G12C_pERK (KRAS_G12C pERK assay IC50)
# Procedure: MIA PaCa-2 (KRAS G12C; ATCC® CRL-1420), A427 (KRAS G12D; ATCC® HTB53), HPAF-II (KRAS G12D; ATCC® CRL-1997) and NCI-H838 (KRAS WT; ATCC® CRL-5844) cells are purchased from ATCC and maintained in RPMI 1640 media supplemented with 10% FBS (Gibco/Life Technologies). The cells are plated at 5000 cells per well (8 uL) into Greiner 384-well low volume, flat-bottom, tissue culture treated white plates and incubated overnight at 37° C. 5% CO2. The next morning, test compound stock solutions are diluted in media at 3× the final concentration, and 4 uL are added to the cells. The plate is mixed by gentle rotation for 30 seconds (250 rpm) at room temperature. The cells are incubated with the KRAS G12C and G12D compounds for 4 hours or 2 hours respectively at 37° C., 5% CO2.
# 4 uL of 4× lysis buffer with blocking reagent (1:25) (Cisbio) are added to each well and plates are rotated gently (300 rpm) for 30 minutes at room temperature. 4 uL per well of Cisbio anti Phospho-ERK 1/2 d2 is mixed with anti Phospho-ERK 1/2 Cryptate (1:1) are added to each well, mixed by rotation and incubated overnight in the dark at room temperature. Plates are read on the Pherastar plate reader at 665 nm and 620 nm wavelengths. IC50 determination is performed by fitting the curve of inhibitor percent inhibition versus the log of the inhibitor concentration using the GraphPad Prism 7 software.
# [2] = biological target: KRAS G12C (Homo sapiens, UniProt P01116, G12C); assay: GDP-GTP exchange assay (fluorescence based guanine nucleotide exchange, bodipy-GDP for GppNHp, SOS1); assay type: biochemical; conditions: bodipy-loaded KRAS G12C, 2 hours pre-incubation with inhibitor, read-out: G12C_exchange (KRAS_G12C exchange assay IC50)
# Procedure: The inhibitor potency of the exemplified compounds was determined in a fluorescence based guanine nucleotide exchange assay, which measures the exchange of bodipy-GDP (fluorescently labeled GDP) for GppNHp (Non-hydrolyzable GTP analog) to generate the active state of KRAS in the presence of SOS1 (guanine nucleotide exchange factor). Inhibitors were serially diluted in DMSO and a volume of 0.1 μL was transferred to the wells of a black low volume 384-well plate. 5 μL/well volume of bodipy-loaded KRAS G12C diluted to 5 nM in assay buffer (25 mM Hepes pH 7.5, 50 mM NaCl, 10 mM MgCl2 and 0.01% Brij-35) was added to the plate and pre-incubated with inhibitor for 2 hours at ambient temperature. Appropriate controls (enzyme with no inhibitor or with a G12C inhibitor (AMG-510)) were included on the plate. The exchange was initiated by the addition of a 5 μL/well volume containing 1 mM GppNHp and 300 nM SOS1 in assay buffer. The 10 μL/well reaction concentration of the bodipy-loaded KRAS G12C, GppNHp, and SOS1 were 5-25 nM, 500 uM, and 150 nM, respectively. The reaction plates were incubated at ambient temperature for 2 hours, a time estimated for complete GDP-GTP exchange in the absence of inhibitor. For the KRAS G12D and G12V mutants, similar guanine nucleotide exchange assays were used with 2.5 nM as final concentration for the bodipy loaded KRAS proteins and with 4 hours and 3 hours incubation after adding GppNHp-SOS1 mixture for G12D and G12V, respectively. A cyclic peptide described to selectively bind G12D mutant (Sakamoto et al., BBRC 484.3 (2017), 605-611) or internal compounds with confirmed binding were used as positive controls in the assay plates. Fluorescence intensities were measured on a PheraStar plate reader instrument (BMG Labtech) with excitation at 485 nm and emission at 520 nm.
# Either GraphPad prism or XLfit was used to analyze the data. The IC50 values were derived by fitting the data to a four parameter logistic equation producing a sigmoidal dose-response curve with a variable Hill coefficient. Prism equation: Y=Bottom+(Top−Bottom)/(1+10^((Log IC50−X)*Hill slope)); XLfit equation: Y=(A+((B−A)/(1+((X/C)^D)))) where X is the logarithm of inhibitor concentration and Y is the response.
# Sequence of KRAS G12C (P01116 1-188 isoform P01116-2 G12C): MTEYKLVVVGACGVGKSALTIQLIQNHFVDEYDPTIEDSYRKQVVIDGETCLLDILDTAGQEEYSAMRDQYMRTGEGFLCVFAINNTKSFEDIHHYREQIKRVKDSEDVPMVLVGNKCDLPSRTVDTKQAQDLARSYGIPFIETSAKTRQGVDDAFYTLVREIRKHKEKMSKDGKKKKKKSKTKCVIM
IC50 [1],IC50 [2],Compound
≤ 100 nM,≤ 100 nM,"C=CC(=O)N1CC(F)(Cn2c(=O)c(=O)n(-c3c(C)ccnc3C(C)C)c3nc(-c4c(C)ccc5cn[nH]c45)c(Cl)cc32)C1 [Example 28, 1-((1-acryloyl-3-fluoroazetidin-3-yl)methyl)-7-chloro-4-(2-isopropyl-4-methylpyridin-3-yl)-6-(6-methyl-1H-indazol-7-yl)-1,4-dihydropyrido[2,3-b]pyrazine-2,3-dione]"
100 to 1000 nM,≤ 100 nM,"C=CC(=O)N1CC(O)(Cn2c(=O)c(=O)n(-c3c(C(C)C)cccc3C(C)C)c3nc(-c4ccccc4F)c(Cl)cc32)C1 [Example 7, 1-((1-acryloyl-3-hydroxy-azetidin-3-yl)methyl)-7-chloro-4-(2,6-diisopropylphenyl)-6-(2-fluorophenyl)-1,4-dihydropyrido[2,3-b]pyrazine-2,3-dione]"
≤ 100 nM,≤ 100 nM,"C=CC(=O)N1CC(F)(Cn2c(=O)c(=O)n(-c3c(C)ccnc3C(C)C)c3nc(-c4c(F)ccc(Cl)c4O)c(Cl)cc32)C1 [Example 24, 1-((1-acryloyl-3-fluoroazetidin-3-yl)methyl)-7-chloro-6-(3-chloro-6-fluoro-2-hydroxyphenyl)-4-(2-isopropyl-4-methylpyridin-3-yl)-1,4-dihydropyrido[2,3-b]pyrazine-2,3-dione]"
100 to 1000 nM,≤ 100 nM,"C=CC(=O)N1CC(F)(Cn2c(=O)c(=O)n(-c3c(C)ccnc3C(C)C)c3nc(-c4ccccc4C(F)(F)F)c(Cl)cc32)C1 [Example 37, 1-((1-acryloyl-3-fluoroazetidin-3-yl)methyl)-7-chloro-4-(2-isopropyl-4-methylpyridin-3-yl)-6-(2-(trifluoromethyl)phenyl)-1,4-dihydropyrido[2,3-b]pyrazine-2,3-dione]"
≤ 100 nM,≤ 100 nM,"C=CC(=O)N1CC(F)(Cn2c(=O)c(=O)n(-c3c(C)ccnc3C(C)C)c3nc(-c4c(F)ccc(F)c4O)c(Cl)cc32)C1 [Example 22, 1-((1-acryloyl-3-fluoroazetidin-3-yl)methyl)-7-chloro-6-(3,6-difluoro-2-hydroxyphenyl)-4-(2-isopropyl-4-methylpyridin-3-yl)-1,4-dihydropyrido[2,3-b]pyrazine-2,3-dione]"
≤ 100 nM,≤ 100 nM,"C=CC(=O)N1CC(F)(Cn2c(=O)c(=O)n(-c3c(C(C)C)cccc3C(C)C)c3nc(-c4c(O)cccc4F)c(Cl)cc32)C1 [Example 12, 1-((1-acryloyl-3-fluoroazetidin-3-yl)methyl)-7-chloro-4-(2,6-diisopropylphenyl)-6-(2-fluoro-6-hydroxyphenyl)-1,4-dihydropyrido[2,3-b]pyrazine-2,3-dione]"
≤ 100 nM,≤ 100 nM,"[2H]C([2H])(n1c(=O)c(=O)n(-c2c(C)ccnc2C(C)C)c2nc(-c3c(F)ccc(C)c3O)c(Cl)cc21)C1(F)CN(C(=O)C=C)C1 [Example 47, 1-((1-acryloyl-3-fluoroazetidin-3-yl)methyl-d2)-7-chloro-6-(6-fluoro-2-hydroxy-3-methylphenyl)-4-(2-isopropyl-4-methylpyridin-3-yl)-1,4-dihydropyrido[2,3-b]pyrazine-2,3-dione]"
100 to 1000 nM,100 to 1000 nM,"C=CC(=O)N1CC(Cn2c(=O)c(=O)n(-c3c(C(C)C)cccc3C(C)C)c3nc(-c4ccccc4F)c(Cl)cc32)(OC)C1 [Example 8, 1-((1-acryloyl-3-methoxy-azetidin-3-yl)methyl)-7-chloro-4-(2,6-diisopropylphenyl)-6-(2-fluorophenyl)-1,4-dihydropyrido[2,3-b]pyrazine-2,3-dione]"
≤ 100 nM,≤ 100 nM,"C=CC(=O)N1CC(F)(Cn2c(=O)c(=O)n(-c3c(C)ccnc3C(C)C)c3nc(-c4cccc(C)c4F)c(Cl)cc32)C1 [Example 34, 1-((1-acryloyl-3-fluoroazetidin-3-yl)methyl)-7-chloro-6-(2-fluoro-3-methylphenyl)-4-(2-isopropyl-4-methylpyridin-3-yl)-1,4-dihydropyrido[2,3-b]pyrazine-2,3-dione]"
100 to 1000 nM,100 to 1000 nM,"C=CC(=O)N1CC(Cn2c(=O)c(=O)n(-c3c(C(C)C)cccc3C(C)C)c3nc(-c4cccc(F)c4F)c(Cl)cc32)(OC)C1 [Example 9, 1-((1-acryloyl-3-methoxy-azetidin-3-yl)methyl)-7-chloro-4-(2,6-diisopropylphenyl)-6-(2,3-difluorophenyl)-1,4-dihydropyrido[2,3-b]pyrazine-2,3-dione]"
≤ 100 nM,≤ 100 nM,"C=C(F)C(=O)N1CC(F)(Cn2c(=O)c(=O)n(-c3c(C(C)C)cccc3C(C)C)c3nc(-c4c(O)cccc4F)c(Cl)cc32)C1 [Example 13, 7-chloro-4-(2,6-diisopropylphenyl)-1-((3-fluoro-1-(2-fluoroacryloyl)azetidin-3-yl)methyl)-6-(2-fluoro-6-hydroxyphenyl)-1,4-dihydropyrido[2,3-b]pyrazine-2,3-dione]"
1000 to 5000 nM,≤ 100 nM,"C=CC(=O)N1CC(O)(Cn2c(=O)c(=O)n(-c3c(C)ccnc3C(C)C)c3nc(-c4c(O)ccc(F)c4F)c(Cl)cc32)C1 [Example 45, 1-((1-acryloyl-3-hydroxyazetidin-3-yl)methyl)-7-chloro-6-(5,6-difluoro-2-hydroxyphenyl)-4-(2-isopropyl-4-methylpyridin-3-yl)-1,4-dihydropyrido[2,3-b]pyrazine-2,3-dione]"
100 to 1000 nM,100 to 1000 nM,"C=CC(=O)N1CC(Cn2c(=O)c(=O)n(-c3c(C)ccnc3C(C)C)c3nc(-c4c(N)cccc4F)c(Cl)cc32)(OC)C1 [Example 40, 1-((1-acryloyl-3-methoxyazetidin-3-yl)methyl)-6-(2-amino-6-fluorophenyl)-7-chloro-4-(2-isopropyl-4-methylpyridin-3-yl)-1,4-dihydropyrido[2,3-b]pyrazine-2,3-dione]"
≤ 100 nM,≤ 100 nM,"C=CC(=O)N1CC(F)(Cn2c(=O)c(=O)n(-c3c(C)ccnc3C(C)C)c3nc(-c4ccc(C)cc4F)c(Cl)cc32)C1 [Example 33, 1-((1-acryloyl-3-fluoroazetidin-3-yl)methyl)-7-chloro-6-(2-fluoro-4-methylphenyl)-4-(2-isopropyl-4-methylpyridin-3-yl)-1,4-dihydropyrido[2,3-b]pyrazine-2,3-dione]"
≤ 100 nM,≤ 100 nM,"C=CC(=O)N1CC(F)(Cn2c(=O)c(=O)n(-c3c(C(C)C)cccc3C(C)C)c3nc(-c4c(O)ccc(F)c4F)c(Cl)cc32)C1 [Example 16, 1-((1-acryloyl-3-fluoroazetidin-3-yl)methyl)-7-chloro-6-(2,3-difluoro-6-hydroxyphenyl)-4-(2,6-diisopropylphenyl)-1,4-dihydropyrido[2,3-b]pyrazine-2,3-dione]"
≤ 100 nM,≤ 100 nM,"C=CC(=O)N1CC(F)(Cn2c(=O)c(=O)n(-c3c(C)ccnc3C(C)C)c3nc(-c4c(O)ccc(F)c4F)c(Cl)cc32)C1 [Example 23, 1-((1-acryloyl-3-fluoroazetidin-3-yl)methyl)-7-chloro-6-(2,3-difluoro-6-hydroxyphenyl)-4-(2-isopropyl-4-methylpyridin-3-yl)-1,4-dihydropyrido[2,3-b]pyrazine-2,3-dione]"
≤ 100 nM,≤ 100 nM,"C=CC(=O)N1CC(F)(Cn2c(=O)c(=O)n(-c3c(C)ccnc3C(C)C)c3nc(-c4ccccc4Cl)c(Cl)cc32)C1 [Example 36, 1-((1-acryloyl-3-fluoroazetidin-3-yl)methyl)-7-chloro-6-(2-chlorophenyl)-4-(2-isopropyl-4-methylpyridin-3-yl)-1,4-dihydropyrido[2,3-b]pyrazine-2,3-dione]"
